In patent publication US12319672B2, “Alpha-D-galactopyranoside derivatives” (Idorsia Pharmaceuticals Ltd, priority 2019, dated 2025) one finds IC50 data, which are given here for 17 compounds.

Where only a bound is given, the exact number is not on record here.

One test addresses human Gal-3 (hGal-3) (Homo sapiens (Human), UniProt P17931). Put plainly: Competitive binding assay: binding of biotinylated hGal-3 to microplate-adsorbed asialofetuin (ASF). The note with it: Activity on hGal-3; mean values of several measurements. In a few lines: (§1)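 Compounds diluted in DMSO competed with biotinylated hGal-3 or hGal-1 (300-1000 ng/mL) for binding to plate-adsorbed asialofetuin for 3 h at 4° C. Bound galectin was detected with streptavidin-peroxidase (80 ng/mL, 1 h, 4° C) and ABTS substrate; IC50 reported as mean of several measurements.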

The next test addresses human Gal-1 (hGal-1). Put plainly: Competitive binding assay: binding of biotinylated hGal-1 to microplate-adsorbed asialofetuin (ASF). The note with it: Activities on hGal-1; mean values of several measurements. The gist of the method:
as §1

Sequence of human Gal-3 (hGal-3) (P17931 whole entry): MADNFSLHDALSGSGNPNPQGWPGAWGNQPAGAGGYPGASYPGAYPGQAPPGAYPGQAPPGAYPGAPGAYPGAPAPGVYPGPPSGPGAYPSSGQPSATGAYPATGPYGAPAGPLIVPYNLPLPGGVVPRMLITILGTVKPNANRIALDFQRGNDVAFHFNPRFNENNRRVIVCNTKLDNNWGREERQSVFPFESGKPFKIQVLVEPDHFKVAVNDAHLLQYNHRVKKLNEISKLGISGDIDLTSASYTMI
Sequence of human Gal-1 (hGal-1) (P09382 2-135 limits assumed): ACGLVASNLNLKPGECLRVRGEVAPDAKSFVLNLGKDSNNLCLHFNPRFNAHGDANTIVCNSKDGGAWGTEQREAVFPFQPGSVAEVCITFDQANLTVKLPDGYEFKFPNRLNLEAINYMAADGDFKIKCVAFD

In the case of `CO[C@@H]1[C@@H](n2cc(-c3cc(F)c(F)c(F)c3)nn2)[C@@H](O)[C@@H](CO)O[C@@H]1Cc1cc(C2(O)CCC(C)(C)CC2)on1` [Ex 1.82], the IC50 on human Gal-3 (hGal-3) was 1.35 µM; on human Gal-1 (hGal-1) it was 28.4 µM.
Turning to `CO[C@@H]1[C@@H](n2cc(-c3cc(F)c(F)c(F)c3)nn2)[C@@H](O)[C@@H](CO)O[C@@H]1Cc1cc(C2(O)CCC(F)(F)CC2)on1` [Ex 1.83], the IC50 is 0.4 µM at human Gal-3 (hGal-3) and 8.21 µM on human Gal-1 (hGal-1).
For `CO[C@@H]1[C@@H](n2cc(-c3cc(F)c(F)c(F)c3)nn2)[C@@H](O)[C@@H](CO)O[C@@H]1Cc1cc(C2COC2)on1` [Ex 1.84] the same measures were 0.35 µM and 3.01 µM.
For `OC[C@H]1O[C@H](Cc2cc(C3CCN(c4ncco4)CC3)on2)[C@H](O)[C@@H](n2cc(-c3cc(F)c(F)c(F)c3)nn2)[C@H]1O` [Ex 1.85] the same measures were 0.047 µM and 1.14 µM.
For `OC[C@H]1O[C@H](Cc2cc(C3CCN(c4nc5ccccc5s4)CC3)on2)[C@H](O)[C@@H](n2cc(-c3cc(F)c(F)c(F)c3)nn2)[C@H]1O` [Ex 1.86] the same measures were 0.089 µM and over 100 µM.
Take `OC[C@H]1O[C@H](Cc2cc(C3CCN(c4nccs4)CC3)on2)[C@H](O)[C@@H](n2cc(-c3cc(F)c(F)c(F)c3)nn2)[C@H]1O` [Ex 1.87]: the IC50 at human Gal-3 (hGal-3) was found to be 0.08 µM; on human Gal-1 (hGal-1) it was 1.97 µM.
For `COc1ccc(C2=NOC(C[C@@H]3O[C@H](CO)[C@H](O)[C@H](n4cc(-c5cc(F)c(F)c(F)c5)nn4)[C@H]3O)C2)cc1` (stereo partly shown) [Ex 1.88] the same measures were 6.23 µM and 22.2 µM.
For `CO[C@@H]1[C@@H](n2cc(-c3cc(F)c(F)c(F)c3)nn2)[C@@H](O)[C@@H](CO)O[C@@H]1C[C@H]1CC([C@@H]2CCN(C)C(=O)C2)=NO1` [Ex 1.89] the same measures were 0.99 µM and 4.11 µM.
For `CO[C@@H]1[C@@H](n2cc(-c3cc(F)c(F)c(F)c3)nn2)[C@@H](O)[C@@H](CO)O[C@@H]1Cc1cc(C2CCN(C)C(=O)C2)no1` (stereo partly shown) [Ex 1.90] the same measures were 0.26 µM and 1.78 µM.
Turning to `CO[C@@H]1[C@@H](n2cc(-c3cc(F)c(F)c(F)c3)nn2)[C@@H](O)[C@@H](CO)O[C@@H]1C[C@H]1CC([C@@H]2CCNC(=O)C2)=NO1` [Ex 1.91], the IC50 at human Gal-3 (hGal-3) is 0.48 µM; on human Gal-1 (hGal-1), 11.8 µM.
For `CO[C@@H]1[C@@H](n2cc(-c3cc(F)c(F)c(F)c3)nn2)[C@@H](O)[C@@H](CO)O[C@@H]1Cc1cc(C2CCNC(=O)C2)no1` (stereo partly shown) [Ex 1.92] the same measures were 0.26 µM and 4.91 µM.
On the same counts, the results for `CO[C@@H]1[C@@H](n2cc(-c3cc(F)c(F)c(F)c3)nn2)[C@@H](O)[C@@H](CO)O[C@@H]1C[C@H]1CC([C@H]2CNC(=O)C2)=NO1` [Ex 1.93] are 0.55 µM and 16 µM.
For `CO[C@@H]1[C@@H](n2cc(-c3cc(F)c(F)c(F)c3)nn2)[C@@H](O)[C@@H](CO)O[C@@H]1Cc1cc(C2CNC(=O)C2)no1` (stereo partly shown) [Ex 1.94] the same measures were 0.14 µM and 4.76 µM.
As for `CC(C)(C)OC(=O)N1CCC(C2=NOC(C[C@H]3O[C@H](CO)[C@H](O)[C@H](n4cc(-c5cc(F)c(Cl)cc5F)nn4)[C@H]3O)C2)CC1` (stereo partly shown) [Ex 1.95], the IC50 on human Gal-3 (hGal-3) was 0.19 µM; at human Gal-1 (hGal-1), 1.21 µM.
On the same counts, the results for `COc1ccc(F)cc1-c1cn([C@H]2[C@@H](O)[C@@H](CO)O[C@H](CC3CC(C4CCN(C(=O)OC(C)(C)C)CC4)=NO3)[C@@H]2O)nn1` (stereo partly shown) [Ex 1.96] are 1.74 µM and 8.65 µM.
On the same counts, the results for `Cc1ccc(-c2cn([C@H]3[C@@H](O)[C@@H](CO)O[C@H](CC4CC(C5CCN(C(=O)OC(C)(C)C)CC5)=NO4)[C@@H]3O)nn2)c(F)c1F` (stereo partly shown) [Ex 1.97] are 0.031 µM and 3.25 µM.
Turning to `CC(C)(C)OC(=O)N1CCC(C2=NOC(C[C@H]3O[C@H](CO)[C@H](O)[C@H](n4cc(-c5ccc6ncsc6c5)nn4)[C@H]3O)C2)CC1` (stereo partly shown) [Ex 1.98], the IC50 was found to be 1.56 µM at human Gal-3 (hGal-3) and 1.84 µM on human Gal-1 (hGal-1).
